In article PMC8964421, “Widespread occurrence of covalent lysine–cysteine redox switches in proteins” (Nature Chemical Biology, 2022):

Target: T1, NgTAL; transaldolase from Neisseria gonorrhoeae (Neisseria gonorrhoeae, UniProt Q5F6E9)
T1 construct: gene tal; recombinant from pET SUMO vector, purified
T1 sequence (Q5F6E9 1-351): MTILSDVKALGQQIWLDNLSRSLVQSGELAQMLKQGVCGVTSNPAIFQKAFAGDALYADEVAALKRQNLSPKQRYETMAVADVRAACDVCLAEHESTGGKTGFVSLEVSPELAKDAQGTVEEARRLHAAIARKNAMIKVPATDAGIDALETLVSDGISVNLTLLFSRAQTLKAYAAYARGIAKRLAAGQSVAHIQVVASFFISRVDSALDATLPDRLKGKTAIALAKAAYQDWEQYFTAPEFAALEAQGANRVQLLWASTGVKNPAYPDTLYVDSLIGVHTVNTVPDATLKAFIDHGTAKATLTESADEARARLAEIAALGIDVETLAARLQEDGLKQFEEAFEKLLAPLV
Assay: coupled enzymatic assay at […] nm, steady-state kinetics
Type: biochemical
Details: co-substrate D-erythrose-4-phosphate; reducing (1 mM DTT) and non-reducing conditions; varied substrate not named in main text

O=P(O)(O)OC[C@H]1OC(O)(CO)[C@@H](O)[C@@H]1O (stereo partly drawn) [D-fructose-6-phosphate]
Michaelis constant: monitors the conversion of ketose donor D-fructose-6-phosphate and aldose acceptor D-erythrose-4-phosphate into products
